In ChEMBL document CHEMBL1146065, “Structure-based optimization of azole antifungal agents by CoMFA, CoMSIA, and molecular docking” (2006):
Converted amounts (≈) assume the structure as drawn.

Tests used:
Type in all cases: functional
[1] = system: Candida albicans; assay: Antifungal activity against Candida albicans
[2] = system: Trichophyton rubrum; assay: Antifungal activity against Trichophyton rubrum
[3] = system: Fonsecaea pedrosoi; assay: Antifungal activity against Fonsecaea pedrosoi
[4] = system: Aspergillus fumigatus; assay: Antifungal activity against Aspergillus fumigatus
[5] = system: Candida tropicalis; assay: Antifungal activity against Candida tropicalis
[6] = system: Cryptococcus neoformans; assay: Antifungal activity against Cryptococcus neoformans
[7] = system: Sporothrix schenckii; assay: Antifungal activity against Sporothrix schenckii
[8] = system: Candida parapsilosis; assay: Antifungal activity against Candida parapsilosis; settings: Lodderomyces parapsilosis

## CC(C)(C)c1ccc(CN2CCN(CC(O)(Cn3cncn3)c3ccc(F)cc3F)CC2)cc1 (centres undefined)
[1]
  MIC80: 0.034 µM

## OC(CN1CCN(Cc2ccc(I)cc2)CC1)(Cn1cncn1)c1ccc(F)cc1F (centres undefined)
[1]
  MIC80: 0.116 µM

## OC(CN1CCN(c2ccncc2)CC1)(Cn1cncn1)c1ccc(F)cc1F (centres undefined)
[1]
  MIC80: 2.5 µM

## OC(CN1CCN(c2ccccn2)CC1)(Cn1cncn1)c1ccc(F)cc1F (centres undefined)
[1]
  MIC80: 0.156 µM

## Cc1cccc(CN2CCN(CC(O)(Cn3cncn3)c3ccc(F)cc3F)CC2)c1 (centres undefined)
[1]
  MIC80: 0.292 µM

## O=[N+]([O-])c1ccccc1CN1CCN(CC(O)(Cn2cncn2)c2ccc(F)cc2F)CC1 (centres undefined)
[1]
  MIC80: 34.9 µM

## N#Cc1ccc(CN2CCN(CC(O)(Cn3cncn3)c3ccc(F)cc3F)CC2)cc1 (centres undefined)
[1]
  MIC80: 0.285 µM

## CCc1ccc(CN2CCN(CC(O)(Cn3cncn3)c3ccc(F)cc3F)CC2)cc1 (centres undefined)
[1]
  MIC80: 0.566 µM

## COc1ccccc1C(=O)N1CCN(CC(O)(Cn2cncn2)c2ccc(F)cc2F)CC1 (centres undefined)
[1]
  MIC80: 17.5 µM

## CN(Cc1ccc(-n2cnn(CC(=O)c3ccccc3)c2=O)cc1)CC(O)(Cn1cncn1)c1ccc(F)cc1F (centres undefined)
[2]
  MIC80: 8 µg/mL (≈ 14.3 µM)
[3]
  MIC80: 1 µg/mL (≈ 1.79 µM)
[4]
  MIC80: 64 µg/mL (≈ 114 µM)
[5]
  MIC80: 0.0625 µg/mL (≈ 0.112 µM)
[6]
  MIC80: 8 µg/mL (≈ 14.3 µM)
[1]
  MIC80: 0.016 µg/mL
[7]
  MIC80: 64 µg/mL (≈ 114 µM)
[8]
  MIC80: 0.008 µg/mL (≈ 0.0143 µM)

## Cc1cccc(C(=O)N2CCN(CC(O)(Cn3cncn3)c3ccc(F)cc3F)CC2)c1 (centres undefined)
[1]
  MIC80: 2.27 µM

## O=C(c1ccc(Cl)cc1)N1CCN(CC(O)(Cn2cncn2)c2ccc(F)cc2F)CC1 (centres undefined)
[1]
  MIC80: 0.541 µM

## O=[N+]([O-])c1ccc(Cl)c(CN2CCN(CC(O)(Cn3cncn3)c3ccc(F)cc3F)CC2)c1 (centres undefined)
[1]
  MIC80: 0.254 µM

## Cc1ccc(Cn2ncn(-c3ccc(CN(C)CC(O)(Cn4cncn4)c4ccc(F)cc4F)cc3)c2=O)cc1 (centres undefined)
[2]
  MIC80: 1 µg/mL (≈ 1.83 µM)
[3]
  MIC80: 0.25 µg/mL (≈ 0.458 µM)
[4]
  MIC80: 32 µg/mL (≈ 58.7 µM)
[5]
  MIC80: 0.5 µg/mL (≈ 0.916 µM)
[6]
  MIC80: 1 µg/mL (≈ 1.83 µM)
[1]
  MIC80: 0.002 µg/mL
[7]
  MIC80: 64 µg/mL (≈ 117 µM)
[8]
  MIC80: 0.125 µg/mL (≈ 0.229 µM)

## OC(CN1CCN(c2cc(C(F)(F)F)cc(Cl)n2)CC1)(Cn1cncn1)c1ccc(F)cc1F (centres undefined)
[1]
  MIC80: 0.124 µM

## OC(CN1CCN(Cc2ccc(Br)cc2F)CC1)(Cn1cncn1)c1ccc(F)cc1F (centres undefined)
[1]
  MIC80: 0.0612 µM

## CN(Cc1cccc(C(F)(F)F)c1)CC(O)(Cn1cncn1)c1ccc(F)cc1F (centres undefined)
[2]
  MIC80: 8 µg/mL (≈ 18.8 µM)
[3]
  MIC80: 1 µg/mL (≈ 2.35 µM)
[4]
  MIC80: 64 µg/mL (≈ 150 µM)
[5]
  MIC80: 0.25 µg/mL (≈ 0.586 µM)
[6]
  MIC80: 0.5 µg/mL (≈ 1.17 µM)
[1]
  MIC80: 0.032 µg/mL
[7]
  MIC80: 64 µg/mL (≈ 150 µM)
[8]
  MIC80: 4 µg/mL (≈ 9.38 µM)

## OC(CN1CCN(Cc2ccc(Cl)cc2)CC1)(Cn1cncn1)c1ccc(F)cc1F (centres undefined)
[1]
  MIC80: 0.0357 µM

## OC(CN1CCN(Cc2ccccc2F)CC1)(Cn1cncn1)c1ccc(F)cc1F (centres undefined)
[1]
  MIC80: 4.64 µM

## Cc1ccc(CN2CCN(CC(O)(Cn3cncn3)c3ccc(F)cc3F)CC2)cc1 (centres undefined)
[1]
  MIC80: 2.34 µM

## OC(CN1CCN(Cc2ccc(Br)cc2)CC1)(Cn1cncn1)c1ccc(F)cc1F (centres undefined)
[1]
  MIC80: 0.254 µM

## O=Cc1ccc(N2CCN(CC(O)(Cn3cncn3)c3ccc(F)cc3F)CC2)cc1 (centres undefined)
[1]
  MIC80: 0.035 µM

## CC(C)(C)c1ccc(N2CCN(CC(O)(Cn3cncn3)c3ccc(F)cc3F)CC2)cc1 (centres undefined)
[1]
  MIC80: 0.137 µM

## CN(Cc1ccc(-n2cnn(CC(=O)c3ccc(F)cc3F)c2=O)cc1)CC(O)(Cn1cncn1)c1ccc(F)cc1F (centres undefined)
[2]
  MIC80: 4 µg/mL (≈ 6.72 µM)
[3]
  MIC80: 2 µg/mL (≈ 3.36 µM)
[4]
  MIC80: 64 µg/mL (≈ 107 µM)
[5]
  MIC80: 0.0625 µg/mL (≈ 0.105 µM)
[6]
  MIC80: 8 µg/mL (≈ 13.4 µM)
[1]
  MIC80: 0.008 µg/mL
[7]
  MIC80: 64 µg/mL (≈ 107 µM)
[8]
  MIC80: 0.016 µg/mL (≈ 0.0269 µM)

## Nc1ccc(C(=O)N2CCN(CC(O)(Cn3cncn3)c3ccc(F)cc3F)CC2)cc1 (centres undefined)
[1]
  MIC80: 36.2 µM

## OC(CN1CCN(c2cccc(C(F)(F)F)c2)CC1)(Cn1cncn1)c1ccc(F)cc1F (centres undefined)
[1]
  MIC80: 0.032 µM

## O=C(c1ccccc1)N1CCN(CC(O)(Cn2cncn2)c2ccc(F)cc2F)CC1 (centres undefined)
[1]
  MIC80: 2.34 µM

## OC(CN1CCN(Cc2cc(F)ccc2Br)CC1)(Cn1cncn1)c1ccc(F)cc1F (centres undefined)
[1]
  MIC80: 0.122 µM

## Cc1ccccc1C(=O)N1CCN(CC(O)(Cn2cncn2)c2ccc(F)cc2F)CC1 (centres undefined)
[1]
  MIC80: 36.2 µM

## CN(Cc1ccc(N)cc1)CC(O)(Cn1cncn1)c1ccc(F)cc1F (centres undefined)
[2]
  MIC80: 16 µg/mL (≈ 42.8 µM)
[3]
  MIC80: 4 µg/mL (≈ 10.7 µM)
[4]
  MIC80: 64 µg/mL (≈ 171 µM)
[5]
  MIC80: 0.5 µg/mL (≈ 1.34 µM)
[6]
  MIC80: 8 µg/mL (≈ 21.4 µM)
[1]
  MIC80: 0.0625 µg/mL
[7]
  MIC80: 64 µg/mL (≈ 171 µM)
[8]
  MIC80: 2 µg/mL (≈ 5.36 µM)

## O=C(c1ccccc1Cl)N1CCN(CC(O)(Cn2cncn2)c2ccc(F)cc2F)CC1 (centres undefined)
[1]
  MIC80: 2.16 µM

## OC(CN1CCN(Cc2cccc(Cl)c2)CC1)(Cn1cncn1)c1ccc(F)cc1F (centres undefined)
[1]
  MIC80: 0.14 µM

## Cc1ccc(C(=O)Cn2ncn(-c3ccc(CN(C)CC(O)(Cn4cncn4)c4ccc(F)cc4F)cc3)c2=O)c(Cl)c1 (centres undefined)
[2]
  MIC80: 64 µg/mL (≈ 105 µM)
[3]
  MIC80: 1 µg/mL (≈ 1.64 µM)
[4]
  MIC80: 32 µg/mL (≈ 52.6 µM)
[5]
  MIC80: 0.0625 µg/mL (≈ 0.103 µM)
[6]
  MIC80: 64 µg/mL (≈ 105 µM)
[1]
  MIC80: 0.125 µg/mL
[7]
  MIC80: 64 µg/mL (≈ 105 µM)
[8]
  MIC80: 0.5 µg/mL (≈ 0.822 µM)

## OC(CN1CCN(Cc2ccc(F)cc2)CC1)(Cn1cncn1)c1ccc(F)cc1F (centres undefined)
[1]
  MIC80: 0.579 µM

## O=C(c1ccc([N+](=O)[O-])cc1)N1CCN(CC(O)(Cn2cncn2)c2ccc(F)cc2F)CC1 (centres undefined)
[1]
  MIC80: 1.06 µM

## CC(C)c1ccc(C(=O)Cn2ncn(-c3ccc(CN(C)CC(O)(Cn4cncn4)c4ccc(F)cc4F)cc3)c2=O)cc1 (centres undefined)
[2]
  MIC80: 1 µg/mL (≈ 1.66 µM)
[3]
  MIC80: 0.125 µg/mL (≈ 0.208 µM)
[4]
  MIC80: 32 µg/mL (≈ 53.2 µM)
[5]
  MIC80: 0.125 µg/mL (≈ 0.208 µM)
[6]
  MIC80: 1 µg/mL (≈ 1.66 µM)
[1]
  MIC80: 0.004 µg/mL
[7]
  MIC80: 64 µg/mL (≈ 106 µM)
[8]
  MIC80: 0.06 µg/mL (≈ 0.0997 µM)

## CC(=O)c1ccc(N2CCN(CC(O)(Cn3cncn3)c3ccc(F)cc3F)CC2)cc1 (centres undefined)
[1]
  MIC80: 0.0339 µM

## OC(CN1CCN(Cc2ccc(Cl)cc2Cl)CC1)(Cn1cncn1)c1ccc(F)cc1F (centres undefined)
[1]
  MIC80: 0.0331 µM

## OC(CN1CCN(Cc2ccccc2Cl)CC1)(Cn1cncn1)c1ccc(F)cc1F (centres undefined)
[1]
  MIC80: 0.558 µM

## O=C(c1cccc([N+](=O)[O-])c1)N1CCN(CC(O)(Cn2cncn2)c2ccc(F)cc2F)CC1 (centres undefined)
[1]
  MIC80: 16.9 µM

## CN(Cc1ccccc1[N+](=O)[O-])CC(O)(Cn1cncn1)c1ccc(F)cc1F (centres undefined)
[2]
  MIC80: 0.25 µg/mL (≈ 0.62 µM)
[3]
  MIC80: 1 µg/mL (≈ 2.48 µM)
[4]
  MIC80: 4 µg/mL (≈ 9.92 µM)
[5]
  MIC80: 0.25 µg/mL (≈ 0.62 µM)
[6]
  MIC80: 0.25 µg/mL (≈ 0.62 µM)
[1]
  MIC80: 2 µg/mL
[7]
  MIC80: 64 µg/mL (≈ 159 µM)
[8]
  MIC80: 2 µg/mL (≈ 4.96 µM)

## O=C(c1ccc(F)cc1)N1CCN(CC(O)(Cn2cncn2)c2ccc(F)cc2F)CC1 (centres undefined)
[1]
  MIC80: 2.23 µM

## N#Cc1ccc(N2CCN(CC(O)(Cn3cncn3)c3ccc(F)cc3F)CC2)cc1 (centres undefined)
[1]
  MIC80: 0.0324 µM

## CC(C)(C)c1ccc(C(=O)N2CCN(CC(O)(Cn3cncn3)c3ccc(F)cc3F)CC2)cc1 (centres undefined)
[1]
  MIC80: 1.03 µM

## Cc1ccc(C(=O)N2CCN(CC(O)(Cn3cncn3)c3ccc(F)cc3F)CC2)cc1 (centres undefined)
[1]
  MIC80: 18.1 µM

## CN(Cc1ccc(C(F)(F)F)cc1)CC(O)(Cn1cncn1)c1ccc(F)cc1F (centres undefined)
[2]
  MIC80: 0.5 µg/mL (≈ 1.17 µM)
[3]
  MIC80: 0.125 µg/mL (≈ 0.293 µM)
[4]
  MIC80: 8 µg/mL (≈ 18.8 µM)
[5]
  MIC80: 1 µg/mL (≈ 2.35 µM)
[6]
  MIC80: 0.25 µg/mL (≈ 0.586 µM)
[1]
  MIC80: 0.031 µg/mL
[7]
  MIC80: 64 µg/mL (≈ 150 µM)
[8]
  MIC80: 2 µg/mL (≈ 4.69 µM)

## OC(CN1CCN(Cc2ccc(F)cc2Br)CC1)(Cn1cncn1)c1ccc(F)cc1F (centres undefined)
[1]
  MIC80: 0.122 µM

## OC(CN1CCN(Cc2cccc(I)c2)CC1)(Cn1cncn1)c1ccc(F)cc1F (centres undefined)
[1]
  MIC80: 0.232 µM

## COc1ccc(C(=O)N2CCN(CC(O)(Cn3cncn3)c3ccc(F)cc3F)CC2)cc1 (centres undefined)
[1]
  MIC80: 0.273 µM

## CCC(C)n1ncn(-c2ccc(N3CCN(c4ccc(OCC5COC(Cn6cncn6)(c6ccc(Cl)cc6Cl)O5)cc4)CC3)cc2)c1=O (centres undefined) [ITRACONAZOLE]
[2]
  MIC80: 1 µg/mL (≈ 1.42 µM)
[3]
  MIC80: 0.5 µg/mL (≈ 0.709 µM)
[4]
  MIC80: 1 µg/mL (≈ 1.42 µM)
[5]
  MIC80: 0.125 µg/mL (≈ 0.177 µM)
[6]
  MIC80: 2 µg/mL (≈ 2.83 µM)
[1]
  MIC80: 0.125 µg/mL
[8]
  MIC80: 0.25 µg/mL (≈ 0.354 µM)
